The source of these data is patent publication US9371336B2, “Compounds for treating spinal muscular atrophy” (PTC Therapeutics Inc., priority 2012, dated 2016).

One may read the melting point as the temperature, or range, at which the solid turns liquid.

For data set [1], the system named is SMN2 minigene mRNA (SMN2-A minigene construct). Put plainly: SMN2 minigene mRNA splicing RT-qPCR assay in cultured cells. Format: cell-based, human. The settings on record: Homo sapiens, HEK293-H; HEK293H cells stably transfected with SMN2-A minigene, 24 hours, 7-point concentration data; concentration giving 1.5-fold SMN2 full length mRNA relative to vehicle-treated cells; read-out: EC1.5x for production of full length SMN2 mRNA. The gist of the method: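 Full-length SMN2 minigene mRNA, measured by exon 7/luciferase-specific RT-qPCR that excludes endogenous SMN1/SMN2, was normalized to GAPDH and expressed relative to vehicle-treated cells via modified ΔΔCt. Stably transfected HEK293H cells received compound (7-point, 3.16-fold series, duplicates) for 24 h at 37 °C.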
For orientation: Quantitative PCR measures a nucleic acid by following its amplification.

A further data set deals with Smn protein. Put plainly: Smn protein assay (HTRF) in cultured cells (SMA patient fibroblasts GM03813). Format: cell-based, human. The note with it: 48 hours; for EC1.5x for Smn protein expression: SMA patient fibroblast cells (GM03813), HTRF, 7-point concentration data, concentration producing 1.5 times Smn protein vs DMSO vehicle control; for maximum fold (Fold) increase of Smn protein: SMA patient fibroblast cells, 7-point concentration curve, relative to vehicle control. The gist of the method: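 Smn level is expressed as fold over vehicle, from blank-corrected ΔF of the 665/620 nm HTRF ratio. Readout used anti-SMN d2 and kryptate antibodies on RIPA lysates. GM03813 SMA fibroblasts had 48 h exposure at 37° C to seven 3.16-fold compound dilutions, run in triplicate.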
(In general: In TR-FRET formats the signal depends on donor and acceptor labels being close together.)

Molecule `Cl.O=c1oc2nc(N3CCCNCC3)ccc2cc1-c1cn2cccnc2n1` [Cpd 30, 7-(1,4-diazepan-1-yl)-3-(imidazo[1,2-a]pyrimidin-2-yl)-2H-pyrano[2,3-b]pyridin-2-one hydrochloride] displayed a melting point of 250 to 252 °C. For the same molecule, the EC (1.5-fold) in data set [1] is 0.1 to 0.3 µM. Besides, in the data set on Smn protein, the “EC1.5x for Smn protein expression” value is “** (an EC1.5× between >1 and ≦3 μM is indicated by two stars (**))”; the “maximum fold (Fold) increase of Smn protein” value (“maximum fold (Fold) increase” below) was “*** (a fold increase between >1.35 and ≦1.5 is indicated by three stars (***))”.

With `C[C@@H]1CN(c2ccc3cc(-c4cn5cccc(Cl)c5n4)c(=O)oc3n2)C[C@H](C)N1C` [Cpd 120, 3-(8-chloroimidazo[1,2-a]pyridin-2-yl)-7-[(3R,5S)-3,4,5-trimethylpiperazin-1-yl]-2H-pyrano[2,3-b]pyridin-2-one], the melting point lay within 241 to 245 °C. For the same molecule, in data set [1], the EC (1.5-fold) was not above 0.1 µM. The “maximum fold (Fold) increase” value in the data set with Smn protein was “*** (a fold increase between >1.35 and ≦1.5 is indicated by three stars (***))”.

As to `Cl.O=c1oc2nc(N3CCCNCC3)ccc2cc1-c1nc2c(Cl)cccc2s1` [Cpd 31, 3-(4-chloro-1,3-benzothiazol-2-yl)-7-(1,4-diazepan-1-yl)-2H-pyrano[2,3-b]pyridin-2-one hydrochloride], the melting point lay within 271 to 273 °C. For the same molecule, the EC (1.5-fold) in data set [1] was in the range of 0.1 to 0.3 µM. For the same molecule, the “maximum fold (Fold) increase” value in the data set with Smn protein is “** (a fold increase between >1.2 and ≦1.35 is indicated by two stars (**))”.

Regarding `Cl.O=c1oc2nc(N3CCCNCC3)ccc2cc1-c1cn2ccsc2n1` [Cpd 32, 7-(1,4-diazepan-1-yl)-3-(imidazo[2,1-b][1,3]thiazol-6-yl)-2H-pyrano[2,3-b]pyridin-2-one hydrochloride], the melting point was 267 to 269 °C. For the same molecule, the EC (1.5-fold) in data set [1] was not above 0.1 µM. Also, the “maximum fold (Fold) increase” value in the data set with Smn protein is “*** (a fold increase between >1.35 and ≦1.5 is indicated by three stars (***))”.

For `CN1CCCN(c2ccc3cc(-c4cn5ccccc5n4)c(=O)oc3n2)CC1` [Cpd 48, 3-(imidazo[1,2-a]pyridin-2-yl)-7-(4-methyl-1,4-diazepan-1-yl)-2H-pyrano[2,3-b]pyridin-2-one], the melting point is 271 to 274 °C. In addition, the EC (1.5-fold) in data set [1] is 0.1 to 0.3 µM. Moreover, in the data set with Smn protein, the “EC1.5x for Smn protein expression” value was “*** (an EC1.5× between >0.3 μM and ≦1 μM is indicated by three stars (***))”; the “maximum fold (Fold) increase” value is “**** (a fold increase between >1.5 and ≦1.65 is indicated by four stars (****))”.

Molecule `Cc1cn2cc(-c3cc4ccc(N5C[C@H](C)NC[C@H]5C)nc4oc3=O)nc2c(C)n1` [Cpd 95, 3-(6,8-dimethylimidazo[1,2-a]pyrazin-2-yl)-7-[(2R,5S)-2,5-dimethylpiperazin-1-yl]-2H-pyrano[2,3-b]pyridin-2-one] had a melting point of 190 to 192 °C. The EC (1.5-fold) in data set [1] is not above 0.1 µM. In the data set with Smn protein, the “EC1.5x for Smn protein expression” value is “**** (an EC1.5×≦0.3 μM is indicated by four stars (****))” and the “maximum fold (Fold) increase” value is listed as “***** (a fold increase >1.65 is indicated by five stars (*****))”.

Molecule `CCN1CCCN(c2ccc3cc(-c4cn5ccccc5n4)c(=O)oc3n2)CC1` [Cpd 127, 7-(4-ethyl-1,4-diazepan-1-yl)-3-(imidazo[1,2-a]pyridin-2-yl)-2H-pyrano[2,3-b]pyridin-2-one] gave a melting point of 285 to 288 °C. Besides, in data set [1], the EC (1.5-fold) was not above 0.1 µM. In the data set with Smn protein, the “EC1.5x for Smn protein expression” value is “*** (an EC1.5× between >0.3 μM and ≦1 μM is indicated by three stars (***))”; the “maximum fold (Fold) increase” value is “**** (a fold increase between >1.5 and ≦1.65 is indicated by four stars (****))”.

`Cc1cc(F)c2nc(-c3cc4ccc(N5CCCN(C)CC5)nc4oc3=O)cn2c1` [Cpd 113, 3-(8-fluoro-6-methylimidazo[1,2-a]pyridin-2-yl)-7-(4-methyl-1,4-diazepan-1-yl)-2H-pyrano[2,3-b]pyridin-2-one]: the melting point fell in the range of 269 to 273 °C. In addition, the EC (1.5-fold) in data set [1] is not above 0.1 µM. Moreover, in the data set with Smn protein, the “EC1.5x for Smn protein expression” value is “*** (an EC1.5× between >0.3 μM and ≦1 μM is indicated by three stars (***))”; the “maximum fold (Fold) increase” value is “**** (a fold increase between >1.5 and ≦1.65 is indicated by four stars (****))”.

`CC(C)N1CCN(c2ccc3cc(-c4nc5ccccc5s4)c(=O)oc3n2)CC1` [Cpd 19, 3-(1,3-benzothiazol-2-yl)-7-[4-(propan-2-yl)piperazin-1-yl]-2H-pyrano[2,3-b]pyridin-2-one]: the melting point was 241 to 245 °C. Also, in data set [1], the EC (1.5-fold) is 0.3 to 1 µM. Also, the “maximum fold (Fold) increase” value in the data set on Smn protein was “** (a fold increase between >1.2 and ≦1.35 is indicated by two stars (**))”.

Take `O=c1oc2nc(N3CCN(CC(O)CO)CC3)ccc2cc1-c1nc2c(Cl)cccc2s1` (stereo not drawn) [Cpd 22, 3-(4-chloro-1,3-benzothiazol-2-yl)-7-[4-(2,3-dihydroxypropyl)piperazin-1-yl]-2H-pyrano[2,3-b]pyridin-2-one]: the melting point was 216 to 220 °C. For the same molecule, the EC (1.5-fold) in data set [1] was in the range of 0.3 to 1 µM. In the data set with Smn protein, the “EC1.5x for Smn protein expression” value was “*** (an EC1.5× between >0.3 μM and ≦1 μM is indicated by three stars (***))”; the “maximum fold (Fold) increase” value was “**** (a fold increase between >1.5 and ≦1.65 is indicated by four stars (****))”.

`Cc1ccc2nc(-c3cc4ccc(N5CCCN(C)CC5)nc4oc3=O)cn2c1` [Cpd 116, 7-(4-methyl-1,4-diazepan-1-yl)-3-(6-methylimidazo[1,2-a]pyridin-2-yl)-2H-pyrano[2,3-b]pyridin-2-one] yielded a melting point of 233 to 236 °C. The EC (1.5-fold) in data set [1] was not above 0.1 µM. In the data set with Smn protein, the “EC1.5x for Smn protein expression” value was “*** (an EC1.5× between >0.3 μM and ≦1 μM is indicated by three stars (***))”; the “maximum fold (Fold) increase” value was “*** (a fold increase between >1.35 and ≦1.5 is indicated by three stars (***))”.

For `CN1CCCN(c2ccc3cc(-c4nc5c(Cl)cccc5s4)c(=O)oc3n2)CC1` [Cpd 37, 3-(4-chloro-1,3-benzothiazol-2-yl)-7-(4-methyl-1,4-diazepan-1-yl)-2H-pyrano[2,3-b]pyridin-2-one], the melting point is 263 to 265 °C. Moreover, the EC (1.5-fold) in data set [1] is not above 0.1 µM. In addition, in the data set on Smn protein, the “EC1.5x for Smn protein expression” value is “** (an EC1.5× between >1 and ≦3 μM is indicated by two stars (**))”; the “maximum fold (Fold) increase” value is “*** (a fold increase between >1.35 and ≦1.5 is indicated by three stars (***))”.

`Cc1cn2cc(-c3cc4ccc(N5C[C@H](C)N(C)C[C@H]5C)nc4oc3=O)nc2cn1` [Cpd 103, 3-(6-methylimidazo[1,2-a]pyrazin-2-yl)-7-[(2R,5S)-2,4,5-trimethylpiperazin-1-yl]-2H-pyrano[2,3-b]pyridin-2-one]: the melting point was 248 to 250 °C. Further, the EC (1.5-fold) in data set [1] fell in the range of 0.1 to 0.3 µM. In addition, in the data set with Smn protein, the “EC1.5x for Smn protein expression” value was “*** (an EC1.5× between >0.3 μM and ≦1 μM is indicated by three stars (***))”; the “maximum fold (Fold) increase” value was “**** (a fold increase between >1.5 and ≦1.65 is indicated by four stars (****))”.

The molecule `Cl.O=c1oc2nc(N3CCCNCC3)ccc2cc1-c1cn2cccc(F)c2n1` [Cpd 46, 7-(1,4-diazepan-1-yl)-3-(8-fluoroimidazo[1,2-a]pyridin-2-yl)-2H-pyrano[2,3-b]pyridin-2-one hydrochloride] registered a melting point of 267 to 269 °C. In data set [1], the EC (1.5-fold) was not above 0.1 µM. For the same molecule, in the data set on Smn protein, the “EC1.5x for Smn protein expression” value is on record as “**** (an EC1.5×≦0.3 μM is indicated by four stars (****))”; the “maximum fold (Fold) increase” value is “**** (a fold increase between >1.5 and ≦1.65 is indicated by four stars (****))”.

The molecule `CCN1CCN(c2ccc3cc(-c4cn5cc(C)cc(F)c5n4)c(=O)oc3n2)CC1` [Cpd 134, 7-(4-ethylpiperazin-1-yl)-3-(8-fluoro-6-methylimidazo[1,2-a]pyridin-2-yl)-2H-pyrano[2,3-b]pyridin-2-one] yielded a melting point of 238 to 242 °C. Further, in data set [1], the EC (1.5-fold) lay within 0.1 to 0.3 µM. Moreover, in the data set with Smn protein, the “EC1.5x for Smn protein expression” value was “* (An EC1.5× for Smn protein expression between >3 μM and ≦10 μM is indicated by one star (*))”; the “maximum fold (Fold) increase” value was “*** (a fold increase between >1.35 and ≦1.5 is indicated by three stars (***))”.

On to `Cc1ccc2nc(-c3cc4ccc(N5CCN(C)[C@H](C)C5)nc4oc3=O)cn2c1` [Cpd 75, 7-[(3R)-3,4-dimethylpiperazin-1-yl]-3-(6-methylimidazo[1,2-a]pyridin-2-yl)-2H-pyrano[2,3-b]pyridin-2-one], for which the melting point lay in the range of 247 to 251 °C. In addition, the EC (1.5-fold) in data set [1] was in the range of 0.1 to 0.3 µM. Moreover, in the data set on Smn protein, the “EC1.5x for Smn protein expression” value is “*** (an EC1.5× between >0.3 μM and ≦1 μM is indicated by three stars (***))”; the “maximum fold (Fold) increase” value is “**** (a fold increase between >1.5 and ≦1.65 is indicated by four stars (****))”.

In turn, `O=c1oc2nc(N3CCN(CC(O)CO)CC3)ccc2cc1-c1nc2ccccc2s1` (stereo not drawn) [Cpd 26, 3-(1,3-benzothiazol-2-yl)-7-[4-(2,3-dihydroxypropyl)piperazin-1-yl]-2H-pyran [2,3-b]pyridin-2-one] returned a melting point of 236 to 239 °C. The EC (1.5-fold) in data set [1] was in the range of 1 to 3 µM. The “maximum fold (Fold) increase” value in the data set with Smn protein is “** (a fold increase between >1.2 and ≦1.35 is indicated by two stars (**))”.
